Data set [1] is described as follows: Effect on contraction force of the heart, guinea pig papillary muscle (negative inotropy). In kind it is cell-based, Meerschweinchen. As to conditions: concentration that reduces the contraction of the papillary muscle by 20 %, read-out: C20_CF. The source says:
Die Wirkung auf die Kontraktionskraft des Herzens wurde am Meerschweinchenpapillarmuskel untersucht. Hämodynamische Studien wurden bei gesunden, wie auch akut infarzierten Hunden durchgeführt.

Data set [2] deals with Purkinje-Fasern aus Hundeherzen. Kind of data set: Electrophysiological study on Purkinje fibres from dog hearts (Vmax, conduction delay). In kind it is cell-based, Hunde. As to conditions: Canis lupus familiaris, read-out: C20_Vmax. The source says:
Die antiarrhythmische Wirksamkeit der erfindungsgemäßen Verbindungen wurde sowohl anhand von elektrophysiologischen Studien an Purkinje-Fasern aus Hundeherzen sowie mit Hilfe von Ouabain-induzierten ventrikulären Tachykardien bei Hunden bestimmt. […]
Als zusätzliches Kriterium wurde der Vorzeitigkeitsindex (Prematurity-Faktor) bestimmt, der die erwünschte Wirksamkeit der erfindungsgemäßen Verbindungen bei frühzeitig einfallenden Extrasystolen charakterisiert.

SMILES strings stand for the structures. Counter-ions that a name gives are not always drawn.

We go through 18 compounds from EP0296264A1, “Aminopropanol derivatives of 3-(2-hydroxyphenyl)-1-propanone, process for their preparation and medicines containing these compounds” (Helopharm W. Petrik GmbH & Co.KG., priority 1987, dated 1988).

Regarding `COc1ccc(C(=O)CCc2ccccc2OCC(O)CNC(C)C)cc1OC` (stereo not drawn) [Beispiel 4, 1-(3,4-Dimethoxyphenyl)-3-[2ʹ-(2-hydroxy-3-isopropylamino-propoxy)-phenyl]-1-propanon-hydrochlorid], the IC20 is 22 µM in data set [1] and 4.8 µM in data set [2].

In the case of `CC(C)(C)NCC(O)COc1ccccc1CCC(=O)c1ccccc1` (stereo not drawn) [Beispiel 48, 1-Phenyl-3-[2ʹ-(2-hydroxy-3-tert.-butylamino-propoxy)-phenyl]-1-propanon-hydrochlorid], the IC20 in data set [1] came out at 3 µM; in data set [2], 1 µM.

As for `CCCNCC(O)COc1ccccc1CCC(=O)c1ccc(OC)c(OC)c1` (stereo not drawn) [Beispiel 1, 1-(3,4-Dimethoxyphenyl)-3-[2ʹ-(2-hydroxy-3-n-propylamino-propoxy)-phenyl]-1-propanon-hydrochlorid], the IC20 was found to be 15 µM in data set [1] and 12.5 µM in data set [2].

As for `O=C(CCc1ccccc1OCC(O)CNC1CCCCC1)c1ccccc1` (stereo not drawn) [Beispiel 46, 1-Phenyl-3-[2ʹ-(2-hydroxy-3-cyclohexylamino-propoxy)-phenyl]-1-propanon-hydrochlorid], the IC20 in data set [1] stood at 2 µM; in data set [2] it was 2.2 µM.

`COc1cc(C(=O)CCc2ccccc2OCC(O)CNC2CCCCC2)cc(OC)c1OC` (stereo not drawn) [Beispiel 16, 1-(3,4,5-Trimethoxyphenyl)-3-[2ʹ-(2-hydroxy-3-cyclohexylamino-propoxy)-phenyl]-1-propanon-hydrochlorid]: the IC20 in data set [1] turned out to be 9 µM; in data set [2], 11.9 µM.

For the compound `COc1cccc(C(=O)CCc2ccccc2OCC(O)CNC(C)(C)C)c1` (stereo not drawn) [Beispiel 27, 1-(3-Methoxyphenyl)-3-[2ʹ-(2-hydroxy-3-tert.-butylamino-propoxy)-phenyl]-1-propanon-hydrochlorid], the values for the IC20 in data set [1] and in data set [2] were 4 µM and 1.6 µM, respectively.

`COc1cc(C(=O)CCc2ccccc2OCC(O)CNC(C)C)cc(OC)c1OC` (stereo not drawn) [Beispiel 12, 1-(3,4,5-Trimethoxyphenyl)-3-[2ʹ-(2-hydroxy-3-isopropylamino-propoxy)-phenyl]-1-propanon-hydrochlorid]: the IC20 worked out at 18 µM in data set [1] and 5.8 µM in data set [2].

`COc1cccc(C(=O)CCc2ccccc2OCC(O)CNC(C)C)c1` (stereo not drawn) [Beispiel 24, 1-(3-Methoxyphenyl)-3-[2ʹ-(2-hydroxy-3-isopropylamino-propoxy)-phenyl]-1-propanon-hydrochlorid]: the IC20 is 10 µM in data set [1] and 1.6 µM in data set [2].

With `Cc1ccc(C(=O)CCc2ccccc2OCC(O)CNC(C)(C)C)cc1` (stereo not drawn) [Beispiel 44, 1-(4-Methylphenyl)-3-[2ʹ-(2-hydroxy-3-tert.-butylamino-propoxy)-phenyl]-1-propanon-hydrochlorid], the values for the IC20 in data set [1] and in data set [2] were 6 µM and 2.6 µM, respectively.

Take `COc1ccc(C(=O)CCc2ccccc2OCC(O)CN2CCCCC2)cc1OC` (stereo not drawn) [Beispiel 6, 1-(3,4-Dimethoxyphenyl)-3-[2ʹ-(2-hydroxy-3-piperidino-propoxy)-phenyl]-1-propanon-hydrochlorid]: the figures for the IC20 in data set [1] and in data set [2] were 20 µM and 11.3 µM, respectively.

`CCC(CO)NCC(O)COc1ccccc1CCC(=O)c1ccc(OC)c(OC)c1` (stereo not drawn) [Beispiel 9, 1-(3,4-Dimethoxyphenyl)-3-[2ʹ-(2-hydroxy-3-(1ʺ-hydroxybut-2-ylamino)-propoxy)-phenyl]-1-propanon-oxalat]: the IC20 in data set [1] was 25 µM; in data set [2], 10.2 µM.

Consider `COc1ccc(C(=O)CCc2ccccc2OCC(O)CNCC(C)O)cc1OC` (stereo not drawn) [Beispiel 7, 1-(3,4-Dimethoxyphenyl)-3-[2ʹ-(2-hydroxy-3-(2ʺ-hydroxypropylamino)-propoxy)-phenyl]-1-propanon-hydrochlorid], for which the IC20 in data set [1] is 18 µM; in data set [2] it was 5.7 µM.

In the case of `CCC(C)(C)NCC(O)COc1ccccc1CCC(=O)c1ccc(OC)c(OC)c1` (stereo not drawn) [Beispiel 2, 1-(3,4-Dimethoxyphenyl)-3-[2ʹ-(2-hydroxy-3-tert.-pentylamino-propoxy)-phenyl]-1-propanon-hydrochlorid], the IC20 turned out to be 8 µM in data set [1] and 3.6 µM in data set [2].

As to `COc1ccc(C(=O)CCc2ccccc2OCC(O)CNCCO)cc1OC` (stereo not drawn) [Beispiel 8, 1-(3,4-Dimethoxyphenyl)-3-[2ʹ-(2-hydroxy-3-(2ʺ-hydroxyethylamino)-propoxy)-phenyl]-1-propanon-hydrochlorid], the IC20 in data set [1] came to 13 µM; in data set [2], 8.3 µM.

As for `CCCNCC(O)COc1ccccc1CCC(=O)c1cccc(OC)c1` (stereo not drawn) [Beispiel 26, 1-(3-Methoxyphenyl)-3-[2ʹ-(2-hydroxy-3-n-propylamino-propoxy)-phenyl]-1-propanon-hydrochlorid], the IC20 in data set [1] came to 3 µM; in data set [2], 1.7 µM.

As to `O=C(CCc1ccccc1OCC(O)CN1CCCCC1)c1ccccc1` (stereo not drawn) [Beispiel 47, 1-Phenyl-3-[2ʹ-(2-hydroxy-3-piperidino-propoxy)-phenyl]-1-propanon-hydrochlorid], the IC20 was 2 µM in data set [1] and 0.3 µM in data set [2].

Take `COc1ccccc1C(=O)CCc1ccccc1OCC(O)CNC(C)(C)C` (stereo not drawn) [Beispiel 38, 1-(2-Methoxyphenyl)-3-[2ʹ-(2-hydroxy-3-tert.-butylamino-propoxy)-phenyl]-1-propanon-hydrochlorid]: the values for the IC20 in data set [1] and in data set [2] were 7 µM and 1.7 µM, respectively.

Turning to `COc1ccc(C(=O)CCc2ccccc2OCC(O)CNC(C)(C)C)cc1OC` (stereo not drawn) [Beispiel 5, 1-(3,4-Dimethoxyphenyl)-3-[2ʹ-(2-hydroxy-3-tert.-butylamino-propoxy)-phenyl]-1-propanon-hydrochlorid], the IC20 in data set [1] came out at 12 µM; in data set [2], 4.4 µM.
